Key:
GR [1] = biological target: T1, GR (Homo sapiens, UniProt P04150); assay: qPCR of endogenous GR target genes, A549 cells; format: cell-based; set-up: endogenous in cells; host or cells: A549; conditions: with dex, RPL19 reference
T1 sequence (P04150 1-777): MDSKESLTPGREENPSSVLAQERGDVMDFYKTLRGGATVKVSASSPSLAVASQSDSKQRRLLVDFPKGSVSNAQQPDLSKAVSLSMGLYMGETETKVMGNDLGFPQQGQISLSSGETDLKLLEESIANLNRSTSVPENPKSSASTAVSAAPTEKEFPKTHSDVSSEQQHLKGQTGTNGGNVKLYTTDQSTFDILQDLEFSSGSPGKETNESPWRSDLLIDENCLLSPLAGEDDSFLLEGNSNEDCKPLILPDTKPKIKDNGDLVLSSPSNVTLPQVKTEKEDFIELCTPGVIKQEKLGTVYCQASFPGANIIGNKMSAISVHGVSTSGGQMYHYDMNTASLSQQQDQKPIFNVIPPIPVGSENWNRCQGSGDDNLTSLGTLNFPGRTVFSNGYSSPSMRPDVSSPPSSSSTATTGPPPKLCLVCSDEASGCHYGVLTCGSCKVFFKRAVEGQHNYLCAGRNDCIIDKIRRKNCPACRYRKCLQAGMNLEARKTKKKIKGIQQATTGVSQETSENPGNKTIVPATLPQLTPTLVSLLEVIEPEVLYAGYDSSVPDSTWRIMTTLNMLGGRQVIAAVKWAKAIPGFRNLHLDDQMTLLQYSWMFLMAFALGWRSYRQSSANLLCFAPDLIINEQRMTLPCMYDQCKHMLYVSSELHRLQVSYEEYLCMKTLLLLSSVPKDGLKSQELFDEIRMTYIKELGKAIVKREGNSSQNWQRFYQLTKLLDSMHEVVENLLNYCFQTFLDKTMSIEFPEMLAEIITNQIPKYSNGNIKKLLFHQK
Source text: (§1) Quantitative PCR. Total RNA isolation used Trizol and Pure Link (Invitrogen). […] Rpl19 expression was used for data normalization.

GR [2] = biological target: T2, GR (Rattus norvegicus, UniProt P06536); assay: Luciferase assays, GR-responsive reporters, U2OS-GR cells; format: cell-based; conditions: pENaC-luc and pSV40-rl, with dex
T2 construct: expressed in transfected cells; host or cells: U2OS-GR
T2 sequence (P06536 1-795): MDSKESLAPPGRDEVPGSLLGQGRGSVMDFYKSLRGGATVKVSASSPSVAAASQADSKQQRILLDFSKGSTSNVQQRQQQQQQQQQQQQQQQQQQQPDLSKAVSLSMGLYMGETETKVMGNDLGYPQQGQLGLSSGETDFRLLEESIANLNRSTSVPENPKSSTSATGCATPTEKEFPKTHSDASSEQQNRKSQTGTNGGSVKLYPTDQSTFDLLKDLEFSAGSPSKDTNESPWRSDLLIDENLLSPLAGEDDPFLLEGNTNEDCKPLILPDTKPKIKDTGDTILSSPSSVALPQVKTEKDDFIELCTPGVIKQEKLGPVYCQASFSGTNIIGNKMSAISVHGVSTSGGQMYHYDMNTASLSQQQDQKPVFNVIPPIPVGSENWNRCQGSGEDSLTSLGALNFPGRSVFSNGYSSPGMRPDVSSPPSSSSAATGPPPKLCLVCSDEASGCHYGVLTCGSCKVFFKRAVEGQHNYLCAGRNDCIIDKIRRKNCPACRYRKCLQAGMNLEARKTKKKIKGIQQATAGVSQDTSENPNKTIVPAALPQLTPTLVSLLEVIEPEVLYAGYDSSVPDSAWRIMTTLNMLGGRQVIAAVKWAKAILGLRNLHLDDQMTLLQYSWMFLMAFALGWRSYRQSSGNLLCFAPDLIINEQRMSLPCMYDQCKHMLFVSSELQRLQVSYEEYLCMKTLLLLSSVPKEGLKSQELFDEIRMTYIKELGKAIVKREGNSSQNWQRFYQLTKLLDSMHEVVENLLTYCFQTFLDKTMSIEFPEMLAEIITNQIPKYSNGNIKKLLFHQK
Method: (§2) Transfections. The day prior to transfection, ˜3×10^5 cells were plated in 6-well dishes. Transfections used Lipofectamine 2000 (Invitrogen). 4 μg of total plasmid DNA were used for each transfection. For A549 cells, 500 μL of DNA/lipofectamine complex was added to 1.5 ml of DMEM with pen/strep and 5% FBS. For U2OS cells, 500 μl of DNA/lipofectamine complex was added to 1.5 ml of Optimem. After 3-4 hours of incubation, media was replaced with standard growth media.
(§3) Luciferase assays. Luciferase assays used the Promega Dual-Luciferase Reporter system. Briefly, cells were transfected with various firefly luciferase plasmids and pSV40-RL at a ratio of 10:1. The day after transfection, cells were split into 96-well dishes and treated with dex and various drugs. Cells were harvested in 50 μl 1XPLB (Promega) 12-18 hr after drug treatment and luciferase assays were performed on 10 μl of lysate. Luminscence was detected using an Ultra Evolution plate reader (Tecan).

[3] = tested on: genes that are regulated by glucocorticoids; assay: In vivo screening: qPCR of glucocorticoid-regulated genes in mouse tissues; conditions: mice, 7.5 mg/kg aclacinomycin, one hour later 2.5 mg/kg dexamethasone, tissues after 6 hours
Method: Mice were injected with 7.5 mg/kg aclacinomycin. One hour later, mice were injected with 2.5 mg/kg dexamethasone. After 6 hours, lungs, liver, heart and skeletal muscle were harvested for RNA preparation. qPCR was performed on isolated RNA from these tissues to analyze expression levels of various genes that are regulated by glucocorticoids.

GR [4] = biological target: T1, GR; assay: Luciferase assays, GR-responsive reporters, A549 cells; format: cell-based; set-up: endogenous in cells; host or cells: A549; conditions: for GR activity (GR-mediated induction of pENaC-luc reporter): pENaC-luc and pSV40-rl; for Dose dependent: whether the drug acted dose-dependently on GR-luciferase reporters
Method: as §2, §3

GR [5] = biological target: T1, GR; assay: Multi-promoter fluorescent protein reporter compound screen for GR modulators; format: cell-based; set-up: endogenous in cells; host or cells: A549; conditions: A549 cells, library compounds 2.5 μM with dex 100 nM; reporter fluorescence relative to plate mean
Method: Compound Screen. A549 cells were transfected with an equal mixture of pENaC-CFP, pGILZ-YFP, pFKBP5-OFP (1.3 μg each), or with pSV40-ChFP (4 μg). The next day, cells were mixed (˜1.8×10^4 of the cells triple-transfected with pENaC-CFP, pGILZ-YFP, pFKBP5-OFP; ˜2×10^3 cells transfected with pSV40-ChFP) and replated into 96 well plates (Costar 3603). 2 hours later, library compounds (2.5 μM) and dex (100 nM) were added using a Biomek robot. The following day, cells were fixed for 4 minutes in 4% paraformaldehyde and fluorescence was measured sequentially for each reporter using a Safire plate reader (Tecan). Hits were scored based on the mean and standard deviation (s.d.) of the experimental wells on each plate. Criteria for a hit were if one reporter was more than 1.5×s.d. from the mean in duplicate, or if two reporters were more than 0.8×s.d. from the mean in duplicate. If the control SV40-ChFP was more than 2×s.d. from the mean in a single plate, or 0.8×s.d. in duplicate plates (in the same direction as the GR reporters), the well was not scored as a hit.
We used the system of Example 1 to screen a library of 1040 natural products and FDA-approved drugs for modulators of GR signaling (Abbott, A. Nature 417:109). The screen design is outlined in FIG. 2. The pENaC-CFP, pGILZ-YFP, and pFKBP5-OFP reporters indicated GR signaling, while pSV40-mCh, an internal control, excluded non-specific transcription inhibitors and toxins. We screened the library in duplicate in the presence of saturating dex (100 nM). Z′, a function that reflects the ability to discriminate between control and experimental wells (Zhang, J. H. et al., J Biomol Screen 4:67-73 (1999)), was determined for dex treatment of each GR reporter. The Z′ values were: Z′(ENAC-CFP)=0.68; Z′(GILZ-YFP)=0.64; and Z′(FKBP5-OFP)=0.66. These indicate that the screen should efficiently identify compounds that increase or decrease fluorescence from any of the three experimental promoters (Zhang, J. H. et al., J Biomol Screen 4:67-73 (1999)).

androgen receptor (AR) = androgen receptor (AR) (Homo sapiens, UniProt P10275); conditions: Hieronymus et al., Cancer Cell 10:321-330 (2006); cited from earlier work
androgen receptor (AR), sequence (P10275 whole entry, species assumed): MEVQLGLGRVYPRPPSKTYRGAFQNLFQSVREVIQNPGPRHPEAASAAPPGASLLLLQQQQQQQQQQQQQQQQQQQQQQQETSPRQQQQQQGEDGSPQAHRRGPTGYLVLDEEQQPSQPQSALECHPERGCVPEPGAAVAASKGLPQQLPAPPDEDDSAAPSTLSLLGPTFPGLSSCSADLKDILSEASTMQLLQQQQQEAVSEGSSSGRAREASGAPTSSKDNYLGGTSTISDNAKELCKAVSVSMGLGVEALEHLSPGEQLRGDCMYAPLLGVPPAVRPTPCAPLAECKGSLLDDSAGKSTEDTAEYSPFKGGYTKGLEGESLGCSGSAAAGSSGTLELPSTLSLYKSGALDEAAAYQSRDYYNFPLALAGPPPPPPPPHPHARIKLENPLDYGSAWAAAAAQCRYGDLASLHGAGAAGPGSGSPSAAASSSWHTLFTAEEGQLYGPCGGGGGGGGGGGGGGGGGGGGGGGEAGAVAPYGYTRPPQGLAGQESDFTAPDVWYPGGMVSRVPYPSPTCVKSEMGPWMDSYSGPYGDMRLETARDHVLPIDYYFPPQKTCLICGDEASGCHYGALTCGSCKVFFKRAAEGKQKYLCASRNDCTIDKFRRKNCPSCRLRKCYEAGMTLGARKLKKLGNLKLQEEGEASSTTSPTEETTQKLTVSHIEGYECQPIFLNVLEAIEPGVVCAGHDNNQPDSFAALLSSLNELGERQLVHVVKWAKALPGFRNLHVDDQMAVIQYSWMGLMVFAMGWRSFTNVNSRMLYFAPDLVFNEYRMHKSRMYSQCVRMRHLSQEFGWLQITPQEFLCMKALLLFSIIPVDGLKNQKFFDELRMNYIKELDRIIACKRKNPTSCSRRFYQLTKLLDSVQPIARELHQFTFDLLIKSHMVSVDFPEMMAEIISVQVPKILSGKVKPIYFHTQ

GR [6] = assay: qPCR of endogenous GR target genes, cell line not distinguished (FIG. 4B, 5D); format: cell-based; conditions: with dex, 24 hr
Source text: as §1

RNA synthesis = conditions: Long et al., Mol Pharmacol 22:152-7 (1982); cited from earlier work

Row | Dose dependent (GR [4]; listed as pararosaniline) | SMILES | expression of endogenous GR target genes (relative mRNA, qPCR) (GR [1]) | GR activity (luciferase reporter) (GR [2]) | activation of FKBP5 by dexamethasone ([3]; liver and lung (FIGS. 6-7)) | activation of KLF15 by dexamethasone ([3]; lung (FIG. 8)) | repression of the cytokine CCL2 by dexamethasone ([3]; lung (FIG. 9)) | pSV40-luc activity (GR [4]; A549 cells, low doses of Acl, dex-unresponsive reporter) | GR activity (GR-mediated induction of pENaC-luc reporter) (GR [4]; A549 cells, with dex) | effect on GR-dependent reporter pENaC-luc compared with GR-independent constitutive reporter pSV40-rl (GR [4]; A549 cells, with dex) | Dose dependent (GR [4]) | ENaC-CFP (GR [5]) | FKBP5-OFP (GR [5]) | GILZ-YFP (GR [5]) | androgen receptor (AR) signaling (androgen receptor (AR)) | expression of endogenous GR target genes (qPCR), overall (GR [6]) | induction of endogenous ENaC (qPCR) (GR [6]) | IC50 for inhibition of RNA synthesis, compared with aclacinomycin (RNA synthesis)
1 | – | CC[C@@]1(O)C[C@H](O[C@H]2C[C@H](N(C)C)[C@H](O[C@H]3C[C@H](O)[C@H](O[C@H]4CCC(=O)[C@H](C)O4)[C@H](C)O3)[C@H](C)O2)c2c(cc3c(c2O)C(=O)c2c(O)cccc2C3=O)[C@H]1C(=O)OC [Aclacinomycin] | inhibited GR at the tested promoters | inhibited GR | blocked the activation | blocked the activation | did not inhibit repression | Increases | antagonists of GR | reduced GR activation of pENaC-luc much more than the constitutive reporter | yes | ↓↓↓^b (more than 2 standard deviations (s.d.) less than the mean (↓↓↓)) | ↓↓↓ (more than 2 standard deviations (s.d.) less than the mean (↓↓↓)) | ↓↓↓ (more than 2 standard deviations (s.d.) less than the mean (↓↓↓)) | – | – | – | –
2 | dose dependent effects | N=C1C=CC(=C(c2ccc(N)cc2)c2ccc(N)cc2)C=C1 [Pararosaniline] | – | – | – | – | – | – | – | – | yes | ↓ (0.8 to 2 s.d. less than the mean (↓)) | No effect | ↓ (0.8 to 2 s.d. less than the mean (↓)) | inhibit | selectively modulated endogenous GR target genes | selectively inhibited the induction of endogenous ENaC transcription in comparison to FKBP5 | –
3 | – | CC[C@@]1(O)C[C@H](O[C@H]2C[C@H](N(C)C)[C@H](O[C@H]3C[C@H](O)[C@H](O[C@H]4C[C@H](O)[C@H](O)[C@H](C)O4)[C@H](C)O3)[C@H](C)O2)c2c(cc3c(c2O)C(=O)c2c(O)ccc(O)c2C3=O)[C@H]1C(=O)OC [marcellomycin] | – | – | – | – | – | – | no impact on GR-mediated induction of the reporter | – | – | – | – | – | – | – | – | similar
